Data reported in PMC6188150, “A small molecule regulator of tissue transglutaminase conformation inhibits the malignant phenotype of cancer cells” (Oncotarget, 2018).

Molecular target: T1, tissue transglutaminase (tTG) (Homo sapiens, UniProt P21980)
T1 construct: gene TGM2; recombinant tTG
T1 sequence (P21980 2-687): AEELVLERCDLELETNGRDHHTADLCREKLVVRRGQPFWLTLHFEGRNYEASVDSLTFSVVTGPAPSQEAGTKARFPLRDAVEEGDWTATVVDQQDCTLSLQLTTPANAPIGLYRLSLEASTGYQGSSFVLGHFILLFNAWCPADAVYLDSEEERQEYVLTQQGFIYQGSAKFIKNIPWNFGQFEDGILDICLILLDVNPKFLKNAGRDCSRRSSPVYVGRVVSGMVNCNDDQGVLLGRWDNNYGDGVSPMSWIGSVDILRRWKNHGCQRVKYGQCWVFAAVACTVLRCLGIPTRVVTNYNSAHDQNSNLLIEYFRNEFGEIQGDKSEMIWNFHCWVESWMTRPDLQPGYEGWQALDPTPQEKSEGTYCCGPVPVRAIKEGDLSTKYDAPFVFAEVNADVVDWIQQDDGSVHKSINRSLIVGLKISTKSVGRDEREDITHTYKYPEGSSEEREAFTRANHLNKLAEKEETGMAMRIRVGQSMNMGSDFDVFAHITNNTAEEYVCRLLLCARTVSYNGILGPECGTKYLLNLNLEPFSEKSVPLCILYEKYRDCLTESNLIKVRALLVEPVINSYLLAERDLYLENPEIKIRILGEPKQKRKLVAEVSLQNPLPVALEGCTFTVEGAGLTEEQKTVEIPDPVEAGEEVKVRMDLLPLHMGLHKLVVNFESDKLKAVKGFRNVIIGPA
Experiment: bodipy-GTP-γS fluorescence binding assay after CaCl2 then EDTA; also BPA/NNDC crosslinking inhibition and trypsin susceptibility

For `Cc1ccc(N/C=C2/C(=O)NC(=O)N(c3ccccc3)C2=O)cc1CN1C(=O)c2ccccc2C1=O` [TTGM 5826], the EC50 was 20 µM.
